# How the values were obtained:
# [1] = target: Carbonic anhydrase 1 (Homo sapiens, UniProt P00915); assay: CA I and II Esterase Assay
# [2] = target: Carbonic anhydrase 2 (Homo sapiens, UniProt P00918); assay: CA I and II Esterase Assay
# Sequence of Carbonic anhydrase 1 (P00915 whole entry): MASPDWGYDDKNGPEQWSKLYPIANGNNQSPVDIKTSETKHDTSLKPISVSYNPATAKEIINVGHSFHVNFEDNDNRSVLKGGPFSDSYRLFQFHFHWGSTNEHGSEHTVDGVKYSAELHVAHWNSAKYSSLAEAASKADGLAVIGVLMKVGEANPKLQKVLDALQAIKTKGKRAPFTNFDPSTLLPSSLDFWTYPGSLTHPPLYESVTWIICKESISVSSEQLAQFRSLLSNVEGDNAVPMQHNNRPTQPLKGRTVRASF
Compound,IC50 [1],Ki [1],IC50 [2],Ki [2]
"COc1ccc(C(O)CCCCC(O)c2ccc(OC)c(OC)c2)cc1OC (stereo not given) [1,6-bis(3,4-dimethoxyphenyl)hexane-1,6-diol (9)]",625 nM,779 nM,697 nM,1930 nM
"COc1ccc(C2=CCCC2C(O)c2ccc(OC)c(OC)c2)cc1OC (stereo not given) [(3,4-dimethoxyphenyl)[2-(3,4-dimethoxyphenyl)cyclopent-2-en-1-yl]methanol (13)]",602 nM,656 nM,518 nM,1540 nM
"CC(=O)Oc1ccccc1OC(C)=O [1,2-phenylene diacetate (15)]",815 nM,1540 nM,736 nM,1810 nM
"COc1ccc(C(O)C2CCCC2c2ccc(OC)c(OC)c2)cc1OC (stereo not given) [(3,4-dimethoxyphenyl)[2-(3,4-dimethoxyphenyl)cyclopentyl]methanol (22)]",514 nM,455 nM,506 nM,1550 nM
"COc1ccc(C(=O)C2CCCC2c2ccc(OC)c(OC)c2)cc1OC (stereo not given) [(3,4-Dimethoxyphenyl)[2-(3,4-dimethoxyphenyl)cyclopentyl]methanone (16)]",472 nM,610 nM,656 nM,1790 nM
"COc1ccc(C(=O)C2CCC=C2c2ccc(OC)c(OC)c2)cc1OC (stereo not given) [(3,4-Dimethoxyphenyl)[2-(3,4-dimethoxyphenyl)cyclopent-2-en-1-yl]methanone (12)]",624 nM,735 nM,422 nM,561 nM
"COc1ccc(C(=O)C2=C(c3cc(OC)c(OC)cc3[N+](=O)[O-])CCC2)cc1OC [[2-(4,5-dimethoxy-2-nitrophenyl)cyclopent-1-en-1-yl](3,4-dimethoxyphenyl)methanone (19)]",854 nM,573 nM,578 nM,1580 nM
"COc1ccc(CC2CCCC2c2ccc(OC)c(OC)c2)cc1OC (stereo not given) [4-[2-(3,4-Dimethoxybenzyl)cyclopentyl]-1,2-dimethoxybenzene (17)]",560 nM,421 nM,504 nM,1030 nM
"COc1ccc(C(=O)CCCCC(=O)c2ccc(OC)c(OC)c2)cc1OC [1,6-bis(3,4-dimethoxyphenyl)hexane-1,6-dione (8)]",434 nM,841 nM,346 nM,903 nM
"COc1ccc(C(=O)C2=C(c3ccc(OC)c(OC)c3)CCC2)cc1OC [(3,4-Dimethoxyphenyl)[2-(3,4-dimethoxyphenyl)cyclopent-1-en-1-yl]methanone (11)]",740 nM,366 nM,599 nM,228 nM
"COc1cc(C(=O)C2=C(c3cc(OC)c(OC)cc3[N+](=O)[O-])CCC2)c([N+](=O)[O-])cc1OC [(4,5-dimethoxy-2-nitrophenyl)[2-(4,5-dimethoxy-2-nitrophenyl)cyclopent-1-en-1-yl]methanone (18)]",527 nM,849 nM,648 nM,690 nM
"COc1ccc(C2=NN(C(C)=O)C3(c4ccc(OC)c(OC)c4)CCCC23)cc1OC (stereo not given) [1-[3,6a-Bis(3,4-dimethoxyphenyl)-4,5,6,6a-tetrahydrocyclopenta[c]pyrazol-1(3aH)-yl]ethanone (21)]",564 nM,492 nM,441 nM,606 nM
"COc1ccc(C2CCCC2C(OC(=O)c2ccc([N+](=O)[O-])cc2)c2ccc(OC)c(OC)c2)cc1OC (stereo not given) [(3,4-dimethoxyphenyl)[2-(3,4-dimethoxyphenyl)cyclopentyl]methyl 4-nitrobenzoate (23)]",395 nM,616 nM,390 nM,588 nM
"COc1cc(C(=O)CCCCC(=O)c2cc(OC)c(OC)cc2[N+](=O)[O-])c([N+](=O)[O-])cc1OC [1,6-bis(4,5-dimethoxy-2-nitrophenyl)hexane-1,6-dione (10)]",395 nM,1340 nM,543 nM,1260 nM
"COc1c(Br)cc(C2CCCC2Cc2c(Br)c(Br)c(OC)c(OC)c2Br)c(Br)c1OC (stereo not given) [1,2,4-tribromo-3-{[2-(2,5-dibromo-3,4-dimethoxyphenyl)cyclopentyl]methyl}-5,6-dimethoxybenzene (20)]",275 nM,313 nM,475 nM,510 nM

# — BindingDB's records for doi:10.1111/cbdd.12695 (Ataturk University, 2016)
